Columns and labels:
[1] = Powder dissolution of triturated mixtures in capsules in 500 mL pH 6.8 buffer; type: physicochemical; conditions: for % Release, Average of n = 2 (range) / % Release, average / % Release / % Release, average (range): capsule; for % Release, average: 200 mg drug + Meglumine 100 mg; for % Release: 200 mg drug + Pluronic acid 100 mg, n = 1
Excerpt: One class of solubilizer excipients, basifiers, act by increasing the microenvironment pH and thereby increasing the local solubility of the drug (for a drug containing an acid moiety). Another class of solubilizer excipients, surfactants, also act by increasing the local solubility of the drug. […] For example, an enhancement in dissolution was obtained when surfactants, for example, sodium lauryl sulfate or Vitamin E TPGS, were used in combination with basifiers, for example, L-arginine, meglumine or L-lysine. […] For example, only 1% drug release was obtained when Compound (1) sodium salt crystalline was present. The % drug release was 54% at 60 minutes in the presence of 100 mg Arginine alone and 59% in the presence of Sodium lauryl sulfate alone (Table 2). However, in presence of 100 mg of Arginine along with 100 mg of Sodium lauryl sulfate, the % drug release increased to 93% at 60 minutes (Table 3) indicating enhancement in dissolution when both surfactant and basifier were used in combination.

[2] = Powder dissolution testing in pH 6.8 buffer, USP Type II Paddle apparatus; type: physicochemical; conditions: 60 minutes, listed as crystalline Compound (1) sodium salt
[3] = Water content at variable humidity (adsorption curve of VTI measurement); type: physicochemical; conditions: 25° C.
Method: Bruker D-8 Advance X-Ray Powder Diffractometer in parallel beam mode with a scintillation detector and using a variable temperature/humidity stage. Humidity adjusted and equilibrated at 25° C., scans from 2-35° 2-theta, 0.05° 2-theta step size, 4 seconds/step At higher humidity (50% RH, and 85% RH) the diffraction lines in the resulting patterns are shifted consistent with lattice expansion to accommodate more water in the lattice. The amount of water at 50% RH based on the adsorption curve of the VTI measurement is 1.7%, and the amount of water at 85% RH is 4.5%. When the sample is exposed to ambient conditions after high humidity the resulting diffraction pattern is again consistent with that of the starting material.

[4] = Storage stability of concentrated supersaturated aqueous solutions; type: physicochemical; conditions: 10 month storage at room temperature
Method: This unique behavior of high solubility at high drug concentrations is most likely attributable to tendency of the drug substance to self-micellize. A CMC value of 41.4 mM (corresponding to 28 mg/mL) is estimated.

[5] = system: HCV infection; assay: Human clinical trials in HCV-infected patients; type: in vivo

Cn1c(C2(NC(=O)c3ccc4c(C5CCCC5)c(-c5ncc(Br)cn5)n(C)c4c3)CCC2)nc2ccc(/C=C/C(=O)[O-])cc21.[Na+] [Compound (1) sodium salt]
% Release, Average of n = 2 (range) ([1]; 200 mg drug + Lysine + VitE TPGS (100 mg + 100 mg), 15 min): 42 (29-55) % | % Release, Average of n = 2 (range) ([1]; 200 mg drug + Lysine + VitE TPGS (100 mg + 100 mg), 30 min): 79 (77-81) % | % Release, Average of n = 2 (range) ([1]; 200 mg drug + Lysine + VitE TPGS (100 mg + 100 mg), 60 min): 83 (82-83) % | % Release, Average of n = 2 (range) ([1]; 200 mg drug + Lysine + VitE TPGS (100 mg + 100 mg), 90 min): 81 (81-82) % | % Release, average ([1]; 90 (infinity), n = 2): 49% | % Release, average ([1]; 15 min, n = 2): 47% | % Release, average ([1]; 30 min, n = 2): 48% | % Release, average ([1]; 60 min, n = 2): 48% | % Release, Average of n = 2 (range) ([1]; 200 mg drug + Meglumine + SDS (40 mg + 20 mg), 15 min): 66 (61-71) % | % Release, Average of n = 2 (range) ([1]; 200 mg drug + Meglumine + SDS (40 mg + 20 mg), 30 min): 73 (71-75) % | % Release, Average of n = 2 (range) ([1]; 200 mg drug + Meglumine + SDS (40 mg + 20 mg), 60 min): 70 (69-71) % | % Release, Average of n = 2 (range) ([1]; 200 mg drug + Meglumine + SDS (40 mg + 20 mg), 90 min): 68 (67-69) % | % Release, Average of n = 2 (range) ([1]; 200 mg drug + Meglumine + SDS (100 mg + 100 mg), 15 min): 81 (79-83) % | % Release, Average of n = 2 (range) ([1]; 200 mg drug + Meglumine + SDS (100 mg + 100 mg), 30 min): 87 (86-88) % | % Release, Average of n = 2 (range) ([1]; 200 mg drug + Meglumine + SDS (100 mg + 100 mg), 60 min): 83 (80-87) % | % Release, Average of n = 2 (range) ([1]; 200 mg drug + Meglumine + SDS (100 mg + 100 mg), 90 min): 86 (85-87) % | % Release, Average of n = 2 (range) ([1]; 200 mg drug + Meglumine + VitE TPGS (40 mg + 20 mg), 15 min): 52 (33-70) % | % Release, Average of n = 2 (range) ([1]; 200 mg drug + Meglumine + VitE TPGS (40 mg + 20 mg), 30 min): 73 (73-73) % | % Release, Average of n = 2 (range) ([1]; 200 mg drug + Meglumine + VitE TPGS (40 mg + 20 mg), 60 min): 73 (73-74) % | % Release, Average of n = 2 (range) ([1]; 200 mg drug + Meglumine + VitE TPGS (40 mg + 20 mg), 90 min): 71 (70-72) % | % Release, Average of n = 2 (range) ([1]; 200 mg drug + Meglumine + VitE TPGS (100 mg + 100 mg), 15 min): 81 (81-81) % | % Release, Average of n = 2 (range) ([1]; 200 mg drug + Meglumine + VitE TPGS (100 mg + 100 mg), 30 min): 85 (84-86) % | % Release, Average of n = 2 (range) ([1]; 200 mg drug + Meglumine + VitE TPGS (100 mg + 100 mg), 60 min): 86 (84-87) % | % Release, Average of n = 2 (range) ([1]; 200 mg drug + Meglumine + VitE TPGS (100 mg + 100 mg), 90 min): 82 (80-84) % | % Release ([1]; 90 (infinity)): 13% | % Release ([1]; 15 min): 3% | % Release ([1]; 30 min): 12% | % Release ([1]; 60 min): 12% | % Release, average (range) ([1]; 200 mg drug + SDS 100 mg, 90 (infinity), n = 2): 49 (45-53) % | % Release, average (range) ([1]; 200 mg drug + SDS 100 mg, 15 min, n = 2): 57 (56-57) % | % Release, average (range) ([1]; 200 mg drug + SDS 100 mg, 30 min, n = 2): 61 (60-63) % | % Release, average (range) ([1]; 200 mg drug + SDS 100 mg, 60 min, n = 2, listed as Compound (1) Na Salt): 59 (58-60) % | % Release, average (range) ([1]; 200 mg drug + SDS 100 mg, 60 min, n = 2, listed as Compound (1) sodium salt crystalline): 59% | % Release, average (range) ([1]; 200 mg drug + Tris 100 mg, 90 (infinity), n = 3): 41 (33-46) % | % Release, average (range) ([1]; 200 mg drug + Tris 100 mg, 15 min, n = 3): 40 (34-43) % | % Release, average (range) ([1]; 200 mg drug + Tris 100 mg, 60 min, n = 3): 44 (35-48) % | % Release, average (range) ([1]; 200 mg drug + Vit E TPGS 100 mg, 90 (infinity), n = 2): 27 (27-27) % | % Release, average (range) ([1]; 200 mg drug + Vit E TPGS 100 mg, 15 min, n = 2): 24 (24-24) % | % Release, average (range) ([1]; 200 mg drug + Vit E TPGS 100 mg, 30 min, n = 2): 27 (27-27) % | % Release, average (range) ([1]; 200 mg drug + Vit E TPGS 100 mg, 60 min, n = 2): 27 (27-27) % | % Release, average (range) ([1]; Drug alone 200 mg, 90 (infinity), n = 2): 1 (1-2) % | % Release, average (range) ([1]; Drug alone 200 mg, 15 min, n = 2): 1 (1-1) % | % Release, average (range) ([1]; Drug alone 200 mg, 30 min, n = 2): 1 (1-1) % | % Release, average (range) ([1]; Drug alone 200 mg, 60 min, n = 2): 1 (1-2) % | % drug release ([1]; drug alone, no basifier or surfactant, time not stated): 1% | % dissolved (kinetic dissolution) [2]: < 5% | amount of water ([3]; 50% RH): 1.7% | amount of water ([3]; 85% RH): 4.5% | precipitation of highly concentrated supersaturated solutions [4]: no precipitation observed | effectiveness in treating HCV-infected patients [5]: demonstrated effectiveness
